Data on nine compounds can be found in patent US5565484A, “Benzenesulphonylindole derivatives for the preparation of medicines” (Sanofi, priority 1993, dated 1996).

Series [1] can be described thus: Solubility tests in water of SR 33805 salts. Type of series: physicochemical. The note with it: for solubility: (2) water of pH = 3.6. The procedure: (1) solubility in water at 25° C. after stirring for 72 hours
(2) solubility in water of pH = 3.6
(3) solubility after addition of the product to be tested to water at
70° C., stirring and continuation of stirring for 72 h at […]

A further series deals with smooth muscle cells. Nature of the series: Inhibition of the proliferation of smooth muscle cells (general statements). Type of series: cell-based. The following applies: qualitative statement.
The subject of series [2] is human aortic smooth muscle cells. As to the kind of experiment: in vitro inhibition of proliferation of human aortic smooth muscle cells. Type of series: cell-based. The following applies: read-out: IC50 (inhibition of cell proliferation). The procedure:
"in vitro" tests were carried out using human aortic smooth muscle cells at rest (10^3 cells per test).
These cells were incubated in the presence of minimum eagle medium to which 5% of an agent inducing a cell proliferation was added. These tests were performed with various increasing doses of the compound to be studied compared with controls.

For series [3], the system named is rabbit carotid arteries (myointimal proliferation). Nature of the series: Inhibition of myointimal proliferation induced in rabbit carotid arteries after lesion of the endothelium. Type of series: in vivo. The following applies: oral, 16 days. As for the experimental part: 2) Inhibition of myointimal proliferation induced in rabbit carotid arteries after lesion of the endothelium For this purpose, rabbits from which the endothelium of the carotid artery was removed were used. Two hours before the lesion, the compound to be studied was administered orally. The treatment was continued orally, daily for 16 days, and the surface areas of the intima and of the media were then determined by morphometric measurement.

Another series has as its system calcium translocation. As to the kind of experiment: Inhibition of calcium translocation in vitro. Type of series: biochemical.
The next series deals with cardiovascular system. As to the kind of experiment: Activity on the cardiovascular system.
For series [4], the system named is Ca^++ surcharge in arterial regions (femoral, mesenteric, aortic etc.). As to the kind of experiment: Inhibition of the Ca++ surcharge after treatment with vitamin D3 in rats. Type of series: in vivo, rat. The note with it: administered twice daily; for minimal effective dose: Rattus norvegicus, 72 h, oral, 3 days. The procedure: 1) Inhibition of the Ca^++ surcharge after treatment with vitamin D3 in rats
A test was performed on rats, to which 300,000 IU/kg of vitamin D3 were administered intramuscularly, followed by oral administration of a daily dose of the compound to be studied. The oral treatment using the compound to be tested was continued for 3 days, the animals were sacrificed and the Ca^++ was then assayed in various arterial regions (femoral, mesenteric, aortic etc.).

Series [5] is described as follows: Hygroscopicity and storage stability of SR 33805 salts. Type of series: physicochemical.
Setting [6] is: (3) added to water at 70° C., then stirring 72 h at 25° C., read-out: solubility after addition of the product to be tested to water at 70° C., stirring and continuation of stirring for 72 h at 25° C.
Setting [7] is: water, (1) water, 25° C., stirring 72 hours, read-out: solubility in water at 25° C. after stirring for 72 hours.
[8] abbreviates: Homo sapiens, 72 h, inducing agent: foetal growth factor, 3 days incubation.
The mark [9] stands for this setting: Homo sapiens, Platelet, 72 h, inducing agent: platelet derived growth factor, 3 days incubation.

Like-named read-outs stand apart in the source and are kept apart here.

A word on the solubility: it is how much of the substance goes into solution per volume.

`COc1ccc(CCN(C)CCCOc2ccc(S(=O)(=O)c3c(C(C)C)c4ccccc4n3C)cc2)cc1OC` [SR 33805 B]: in series [1], the solubility was found to be 100 µg/mL. The solubility thermodynamic at 72 h was 260 µg/mL in series [1] (setting [6]) and 150 µg/mL in series [1] (setting [7]).
In the case of `COc1ccc(CCN(C)CCCC(C#N)(c2ccc(OC)c(OC)c2)C(C)C)cc1OC` (stereo not drawn) [Verapamil], the “inhibition of the proliferation of smooth muscle cells” value (shortened to “inhibition … of smooth muscle cells”) in the series on smooth muscle cells is recorded as “devoid of such properties or have shown themselves to be endowed with these properties at high, or even subtoxic, doses”. Moreover, the IC50 in series [2] (Homo sapiens, 72 h) is 10000 nM. Further, in series [3] (maximum dose twice 6 mg/kg), the “effect on myointimal hyperplasia” value is given as “no significant effect”.
With `CNCCCOc1ccc(S(=O)(=O)c2c(C(C)C)c3ccccc3n2C)cc1` [SR 34549, 1-methyl-3-isopropyl-2-{4-[3-(N-methylamino)propoxy]benzenesulfonyl} indole], the “inhibition of the calcium translocation” value in the series with calcium translocation is reported as “devoid of inhibitory properties”. The “inhibition … of smooth muscle cells” value with smooth muscle cells is on record as “strong activity”. For the same compound, the “activity on the cardiovascular system” value with cardiovascular system is “very moderate or lack of activity”.
Take “3-isopropyl-1-[4-{3-[N-methyl-N-(3,4-dimethoxyphenethyl)amino]propoxy}benzenesulphonyl]-indolizine [Fantofarone]”: the “dose from which significant decrease in the total Ca content” value in series [4] (artery not specified, same experimental conditions) stood at 100 mg/kg. In addition, the “inhibition … of smooth muscle cells” value with smooth muscle cells is reported as “devoid of such properties or have shown themselves to be endowed with these properties at high, or even subtoxic, doses”. The IC50 was 5500 nM in series [2] (inducing agent: fetal calf serum, 3 days incubation); 2000 nM in series [2] (inducing agent: foetal growth factor, 3 days incubation); above 10000 nM in series [2] (inducing agent: platelet derived growth factor, 3 days incubation). The “effect on myointimal hyperplasia” value in series [3] (maximum dose 12 mg/kg) is reported as “no significant effect”.
In the case of `COC(=O)C1=C(C)NC(C)=C(C(=O)OC)C1c1ccccc1[N+](=O)[O-]` [Nifedipine], the results for the IC50 in series [2] (setting [8]) and in series [2] (setting [9]) were 1000 nM and above 10000 nM, respectively. Besides, the “effect on myointimal hyperplasia” value in series [3] (maximum dose 6 mg/kg or twice 6 mg/kg) is listed as “no significant effect”.
With `COc1ccc(CCN(C)CCCOc2ccc(S(=O)(=O)c3c(C(C)C)c4ccccc4n3C)cc2)cc1OC.CS(=O)(=O)O` [SR 33805 C, 1-methyl-3-isopropyl-2-[4-{3-[N-methyl-N-(3,4-dimethoxyphenethyl)amino]propoxy}benzenesulphonyl]-indole methanesulphonate], the minimal effective dose in series [4] (aorta, read-out: dose from which significant inhibition of the Ca++ surcharge in the aorta) was 2 mg/kg; in series [4] (mesenteric artery, read-out: dose from which significant inhibition of the Ca++ surcharge in the mesenteric artery), 5 mg/kg; in series [3] (Oryctolagus cuniculus, 384 h, read-out: dose from which significant inhibition of myointimal proliferation) it was 1.5 mg/kg. Besides, the solubility in series [1] stood at 79900 µg/mL. Further, the figures for the solubility thermodynamic at 72 h in series [1] (setting [6]) and in series [1] (setting [7]) were 98300 µg/mL and 67500 µg/mL, respectively. Further, the aqueous solubility entry in series [1] (in words, contrary to the other salts of SR 33805) is on record as “good aqueous solubility”. Also, the hygroscopicity result in series [5] is listed as “no signs of hygroscopicity”. The “stability under various storage conditions” value in series [5] (various storage conditions) was “good stability”. Moreover, the IC50 was found to be 900 nM in series [2] (Homo sapiens, 72 h, inducing agent: fetal calf serum, 3 days incubation); 600 nM in series [2] (setting [8]); 300 nM in series [2] (setting [9]). The “inhibition of myointimal proliferation” value in series [3] (from the dose of 1.5 mg/kg, significant) is reported as -58%.
With `COc1ccc(CCN(C)CCCOc2ccc(S(=O)(=O)c3c(C(C)C)c4ccccc4n3C)cc2)cc1OC.O=C(O)C(=O)O` [SR 33805 A, 1-Methyl-3-isopropyl-2-[4-{3-[N-methyl-N-(3,4-dimethoxyphenethyl)amino]propoxy}benzenesulphonyl]indole hydrogen oxalate], in series [1], the solubility stood at 190 µg/mL. Moreover, the solubility thermodynamic at 72 h was 310 µg/mL in series [1] (setting [6]) and 70 µg/mL in series [1] (setting [7]).
For the compound `COc1ccc(CCN(C)CCCOc2ccc(S(=O)(=O)c3c(C(C)C)c4ccccc4n3C)cc2)cc1OC` [SR 33805, 1-methyl-3-isopropyl-2-[4-{3-[N-methyl-N-(3,4-dimethoxyphenethyl)amino]propoxy}benzenesulphonyl]indole], the “inhibition … of smooth muscle cells” value with smooth muscle cells is given as “most interesting inhibitory potentiality”.
For the compound `COc1ccc([C@@H]2Sc3ccccc3N(CCN(C)C)C(=O)[C@@H]2OC(C)=O)cc1` [Diltiazem], in series [3] (maximum dose twice 6 mg/kg), the “effect on myointimal hyperplasia” value is “no significant effect”.
